Laboratory results published in US5665704A, “Receptor specific atrial natriuretic peptides” (Genentech, Inc., priority 1995, dated 1997).
Read-outs that look alike come from different tables or passages of the source. Bridge positions count the residues as written; N and C are the ends. Square brackets hold non-standard residues; d marks the D form. Peptide text beside a SMILES is read from it. hCys = N[C@@H](CCS)C(=O)O

How the values were obtained:
[1] = molecular target: T1, hNPR-C (Homo sapiens, UniProt P17342); experiment: Binding affinity for clearance receptor hNPR-C
T1 sequence (P17342 27-541): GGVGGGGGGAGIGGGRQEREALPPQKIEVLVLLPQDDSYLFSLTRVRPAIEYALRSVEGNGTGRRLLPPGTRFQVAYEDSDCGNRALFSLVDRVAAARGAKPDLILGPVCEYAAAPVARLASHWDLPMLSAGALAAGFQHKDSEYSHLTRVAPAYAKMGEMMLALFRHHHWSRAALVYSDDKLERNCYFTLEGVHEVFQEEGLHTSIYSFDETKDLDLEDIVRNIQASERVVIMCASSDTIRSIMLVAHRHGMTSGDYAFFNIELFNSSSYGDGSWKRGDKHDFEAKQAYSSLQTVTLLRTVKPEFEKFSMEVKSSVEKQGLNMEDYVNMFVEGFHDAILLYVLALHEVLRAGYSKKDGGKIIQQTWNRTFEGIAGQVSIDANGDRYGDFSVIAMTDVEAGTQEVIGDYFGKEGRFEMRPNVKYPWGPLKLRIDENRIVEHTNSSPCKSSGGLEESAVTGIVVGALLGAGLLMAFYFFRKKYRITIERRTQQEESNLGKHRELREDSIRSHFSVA
Excerpt: For assay systems to measure binding of hANF and the compounds of this invention to hNPR-C see: Schank, D. B., et al., Biochem. Biophys. Res. Comm. 127:433-442 (1985); Scarborough, R. M., J. Biol. Chem. 261:12960-12964 and WO 90/01940.

[2] = molecular target: T2, hNPR-A (Homo sapiens, UniProt P16066); experiment: Binding affinity for hNPR-A (competitive displacement of I^125 labeled wild-type ANF); conditions: Table I; read-out: Binding Affinity IC50 (pM) hNPR-A
T2 sequence (P16066 33-1061): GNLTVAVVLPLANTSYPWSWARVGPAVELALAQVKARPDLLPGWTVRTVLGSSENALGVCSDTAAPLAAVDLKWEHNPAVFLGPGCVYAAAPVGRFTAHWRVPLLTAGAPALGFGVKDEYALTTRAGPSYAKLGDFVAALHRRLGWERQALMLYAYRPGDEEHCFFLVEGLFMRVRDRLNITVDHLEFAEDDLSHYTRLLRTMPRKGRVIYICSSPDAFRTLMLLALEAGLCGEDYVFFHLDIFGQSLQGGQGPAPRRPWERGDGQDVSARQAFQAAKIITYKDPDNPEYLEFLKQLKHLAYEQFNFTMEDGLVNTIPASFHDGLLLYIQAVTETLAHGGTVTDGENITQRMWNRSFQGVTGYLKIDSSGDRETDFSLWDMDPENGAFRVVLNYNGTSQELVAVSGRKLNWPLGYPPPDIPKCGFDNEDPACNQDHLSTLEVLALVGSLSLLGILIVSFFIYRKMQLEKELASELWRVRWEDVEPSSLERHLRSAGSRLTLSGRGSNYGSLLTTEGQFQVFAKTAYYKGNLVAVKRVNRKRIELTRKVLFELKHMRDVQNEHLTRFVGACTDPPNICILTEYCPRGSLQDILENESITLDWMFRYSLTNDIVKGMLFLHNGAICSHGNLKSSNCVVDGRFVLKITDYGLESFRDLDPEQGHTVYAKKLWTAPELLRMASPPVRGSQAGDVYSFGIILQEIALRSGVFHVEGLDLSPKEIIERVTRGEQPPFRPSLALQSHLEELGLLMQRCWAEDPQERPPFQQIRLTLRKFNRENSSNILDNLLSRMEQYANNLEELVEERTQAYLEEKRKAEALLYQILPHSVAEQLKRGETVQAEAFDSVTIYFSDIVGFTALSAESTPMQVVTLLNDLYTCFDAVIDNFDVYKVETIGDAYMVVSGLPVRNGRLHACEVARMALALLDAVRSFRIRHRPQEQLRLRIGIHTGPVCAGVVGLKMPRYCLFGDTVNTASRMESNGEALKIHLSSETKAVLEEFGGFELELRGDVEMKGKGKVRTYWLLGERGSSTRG

[3] = Table I, read-out: Binding Affinity IC50 (pM) hNPR-C

IC50 [1, 3] [pM] | IC50 [2] [pM] | SMILES | IC50 [1] [pM]
3310 | 56 | CC[C@H](C)[C@@H]1NC(=O)[C@H](CO)NC(=O)[C@H](CC(=O)O)NC(=O)[C@H]([C@@H](C)CC)NC(=O)[C@H](CCCNC(=N)N)NC(=O)CNC(=O)CNC(=O)[C@H](Cc2ccccc2)NC(=O)[C@@H](NC(=O)[C@H](CO)NC(=O)[C@H](CO)NC(=O)[C@H](CCCNC(=N)N)NC(=O)[C@H](CCCNC(=N)N)NC(=O)[C@H](CC(C)C)NC(=O)[C@@H](N)CO)CSSC[C@@H](C(=O)N[C@@H](CC(N)=O)C(=O)N[C@@H](CO)C(=O)N[C@@H](Cc2ccccc2)C(=O)N[C@@H](CCCNC(=N)N)C(=O)N[C@@H](Cc2ccc(O)cc2)C(=O)O)NC(=O)CNC(=O)[C@H](CC(C)C)NC(=O)CNC(=O)[C@H](CO)NC(=O)[C@H](CCC(N)=O)NC(=O)[C@H](C)NC(=O)[C@H](CCCNC(=N)N)NC1=O [ANF25] (H-SLRRSSCFGGRIDSIRAQSGLGCNSFRY-OH; disulfide 7-23) | –
1e+06 | – | CC[C@H](C)[C@@H]1NC(=O)[C@H](CCCNC(=N)N)NC(=O)[C@H](CC(=O)O)NC(=O)[C@H]([C@@H](C)CC)NC(=O)[C@H](CO)NC(=O)CNC(=O)[C@H]([C@@H](C)O)NC(=O)[C@H](Cc2ccccc2)NC(=O)[C@@H](NC(=O)[C@H](CO)NC(=O)[C@H](CO)NC(=O)[C@H](CCCNC(=N)N)NC(=O)[C@H](CCCNC(=N)N)NC(=O)[C@H](CC(C)C)NC(=O)[C@@H](N)CO)CSSC[C@@H](C(=O)N[C@@H](CC(N)=O)C(=O)N[C@@H](CO)C(=O)N[C@@H](Cc2ccccc2)C(=O)N[C@@H](CCCNC(=N)N)C(=O)N[C@@H](Cc2ccc(O)cc2)C(=O)O)NC(=O)CNC(=O)[C@H](CC(C)C)NC(=O)CNC(=O)[C@H](CO)NC(=O)[C@H](CCC(N)=O)NC(=O)[C@H](C)NC(=O)[C@H](CCCNC(=N)N)NC1=O [ANF27] | –
3.21e+06 | 52 | CC[C@H](C)[C@@H]1NC(=O)[C@H](CCCNC(=N)N)NC(=O)[C@H](CC(=O)O)NC(=O)[C@H]([C@@H](C)CC)NC(=O)[C@H](CO)NC(=O)CNC(=O)[C@H]([C@@H](C)O)NC(=O)[C@H](Cc2ccccc2)NC(=O)[C@@H](NC(=O)[C@H](CO)NC(=O)[C@H](CO)NC(=O)[C@H](CCCNC(=N)N)NC(=O)[C@H](CCCNC(=N)N)NC(=O)[C@H](CC(C)C)NC(=O)[C@@H](N)CO)CSSC[C@@H](C(=O)N[C@@H](CC(N)=O)C(=O)N[C@@H](CO)C(=O)N[C@@H](Cc2ccccc2)C(=O)N[C@@H](CCCNC(=N)N)C(=O)N[C@@H](Cc2ccc(O)cc2)C(=O)O)NC(=O)CNC(=O)[C@H](CC(C)C)NC(=O)CNC(=O)[C@H](CO)NC(=O)[C@@H]2CCCN2C(=O)[C@H](C)NC(=O)[C@H](CCCNC(=N)N)NC1=O [ANF31] (H-SLRRSSCFTGSIDRIRAPSGLGCNSFRY-OH; disulfide 7-23) | –
251000 | 570 | CC[C@H](C)[C@@H]1NC(=O)[C@H](CCCNC(=N)N)NC(=O)[C@H](CC(=O)O)NC(=O)[C@H](CCSC)NC(=O)[C@H](CO)NC(=O)CNC(=O)[C@H]([C@@H](C)O)NC(=O)[C@H](Cc2ccccc2)NC(=O)[C@@H](NC(=O)[C@H](CO)NC(=O)[C@H](CO)NC(=O)[C@H](CCCNC(=N)N)NC(=O)[C@H](CCCNC(=N)N)NC(=O)[C@H](CC(C)C)NC(=O)[C@@H](N)CO)CSSC[C@@H](C(=O)N[C@@H](CC(N)=O)C(=O)N[C@@H](CO)C(=O)N[C@@H](Cc2ccccc2)C(=O)N[C@@H](CCCNC(=N)N)C(=O)N[C@@H](Cc2ccc(O)cc2)C(=O)O)NC(=O)CNC(=O)[C@H](CC(C)C)NC(=O)CNC(=O)[C@H](CO)NC(=O)[C@H](CCC(N)=O)NC(=O)[C@H](C)NC(=O)CNC1=O [ANF50] (H-SLRRSSCFTGSMDRIGAQSGLGCNSFRY-OH; disulfide 7-23) | –
32200 | 4550 | CC[C@H](C)[C@@H]1NC(=O)[C@H](CCCNC(=N)N)NC(=O)[C@H](CC(=O)O)NC(=O)[C@H](CCSC)NC(=O)[C@@H]2CCCN2C(=O)[C@H](CCCNC(=N)N)NC(=O)[C@H](CCC(=O)O)NC(=O)[C@H](Cc2ccccc2)NC(=O)[C@@H](NC(=O)[C@H](CO)NC(=O)[C@H](CO)NC(=O)[C@H](CCCNC(=N)N)NC(=O)[C@H](CCCNC(=N)N)NC(=O)[C@H](CC(C)C)NC(=O)[C@@H](N)CO)CSSC[C@@H](C(=O)N[C@@H](CC(N)=O)C(=O)N[C@@H](CO)C(=O)N[C@@H](Cc2ccccc2)C(=O)N[C@@H](CCCNC(=N)N)C(=O)N[C@@H](Cc2ccc(O)cc2)C(=O)O)NC(=O)CNC(=O)[C@H](CC(C)C)NC(=O)CNC(=O)[C@H](CO)NC(=O)[C@H](CCC(N)=O)NC(=O)[C@H](C)NC(=O)CNC1=O [ANF51] (H-SLRRSSCFERPMDRIGAQSGLGCNSFRY-OH; disulfide 7-23) | –
– | 3300 | CC[C@H](C)[C@@H]1NC(=O)[C@H](CO)NC(=O)[C@H](CC(=O)O)NC(=O)[C@H](CC(C)C)NC(=O)[C@H](CO)NC(=O)CNC(=O)[C@H]([C@@H](C)O)NC(=O)[C@H](Cc2ccccc2)NC(=O)[C@@H](NC(=O)[C@H](CO)NC(=O)[C@H](CO)NC(=O)[C@H](CCCNC(=N)N)NC(=O)[C@H](CC(=O)O)NC(=O)[C@H](CC(C)C)NC(=O)[C@@H](N)CO)CSSC[C@@H]2NC(=O)CNC(=O)[C@H](CC(C)C)NC(=O)CNC(=O)[C@H](CO)NC(=O)[C@H](CCSSCC[C@@H](C(=O)O)NC(=O)[C@H](CCCNC(=N)N)NC(=O)[C@H](Cc3ccccc3)NC(=O)[C@H](CO)NC(=O)[C@H](CC(N)=O)NC2=O)NC(=O)[C@H](C)NC(=O)[C@H](CCCNC(=N)N)NC1=O [ANF70] (H-SLDRSSCFTGSLDSIRA[hCys]SGLGCNSFR[hCys]-OH; disulfide 7-23, 18-28) | –
– | – | CC[C@H](C)[C@@H]1NC(=O)[C@H](CCCNC(=N)N)NC(=O)[C@H](CC(=O)O)NC(=O)[C@H]([C@@H](C)CC)NC(=O)[C@H](CO)NC(=O)CNC(=O)[C@@H](C)NC(=O)[C@H](Cc2ccccc2)NC(=O)[C@@H](NC(=O)[C@H](CO)NC(=O)[C@H](CO)NC(=O)[C@H](CCCNC(=N)N)NC(=O)[C@H](CCCNC(=N)N)NC(=O)[C@H](CC(C)C)NC(=O)[C@@H](N)CO)CSSC[C@@H](C(=O)N[C@@H](CC(N)=O)C(=O)N[C@@H](CO)C(=O)N[C@@H](Cc2ccccc2)C(=O)N[C@@H](CCCNC(=N)N)C(=O)N[C@@H](Cc2ccc(O)cc2)C(=O)O)NC(=O)CNC(=O)[C@H](CC(C)C)NC(=O)CNC(=O)[C@H](CO)NC(=O)[C@H](CCC(N)=O)NC(=O)[C@H](C)NC(=O)[C@H](CCCNC(=N)N)NC1=O [ANF78] | 8640

SMILES | IC50 [1, 3] [pM] | IC50 [2] [pM] | IC50 [1] [pM]
CC[C@H](C)[C@@H]1NC(=O)[C@H](CCCNC(=N)N)NC(=O)[C@H](CC(=O)O)NC(=O)[C@H]([C@@H](C)CC)NC(=O)[C@H](CCCNC(=N)N)NC(=O)CNC(=O)CNC(=O)[C@H](Cc2ccccc2)NC(=O)[C@@H](NC(=O)[C@H](CO)NC(=O)[C@H](CO)NC(=O)[C@H](CCCNC(=N)N)NC(=O)[C@H](CCCNC(=N)N)NC(=O)[C@H](CC(C)C)NC(=O)[C@@H](N)CO)CSSC[C@@H](C(=O)N[C@@H](CC(N)=O)C(=O)N[C@@H](CO)C(=O)N[C@@H](Cc2ccccc2)C(=O)N[C@@H](CCCNC(=N)N)C(=O)N[C@@H](Cc2ccc(O)cc2)C(=O)O)NC(=O)CNC(=O)[C@H](CC(C)C)NC(=O)CNC(=O)[C@H](CO)NC(=O)[C@H](CCC(N)=O)NC(=O)[C@H](C)NC(=O)[C@H](CCCNC(=N)N)NC1=O [ANF24] | 5640 | – | –
